Experimental data published in patent publication US10472364B2 (Calithera Biosciences, Inc., priority 2016, dated 2019).

Tests used:
recombinant CD73 = recombinant CD73 (Homo sapiens (Human), UniProt P21589); test: Inhibition of the CD73 enzyme in vitro (soluble recombinant CD73, Malachite Green); format: biochemical; details: recombinant CD73 0.5 nM, AMP 50 μM, 30 minutes at room temperature
Experimental: The concentration of inorganic phosphate was determined using a phosphate standard curve.

[1] = molecular target: endogenous, cell-bound CD73 on SK-MEL-28 cells (Homo sapiens (Human), UniProt P21589); test: Inhibition of endogenous, cell-bound CD73 enzyme activity in SK-MEL-28 cells (Malachite Green); format: cell-based; details: 100 μM AMP, 30 minutes at room temperature
Experimental: The day before the experiment, 5000 cells were plated per well in a 96-well plate. Cells were washed twice with […] reaction buffer (20 mM HEPES, pH 7.4, 125 mM NaCl, 1 mM KCl, 2 mM MgCl2, 10 mM glucose) to remove residual inorganic phosphate. After washing, assays contained serial dilutions of test compounds and 100 μM of AMP in a total volume of 200 μL reaction buffer, with a final DMSO concentration≤0.5%. After 30 minutes at room temperature, supernatant was removed from the cells. […] The concentration of inorganic phosphate was determined using a phosphate standard curve to determine IC50.

Chain of recombinant CD73 (P21589 27-547): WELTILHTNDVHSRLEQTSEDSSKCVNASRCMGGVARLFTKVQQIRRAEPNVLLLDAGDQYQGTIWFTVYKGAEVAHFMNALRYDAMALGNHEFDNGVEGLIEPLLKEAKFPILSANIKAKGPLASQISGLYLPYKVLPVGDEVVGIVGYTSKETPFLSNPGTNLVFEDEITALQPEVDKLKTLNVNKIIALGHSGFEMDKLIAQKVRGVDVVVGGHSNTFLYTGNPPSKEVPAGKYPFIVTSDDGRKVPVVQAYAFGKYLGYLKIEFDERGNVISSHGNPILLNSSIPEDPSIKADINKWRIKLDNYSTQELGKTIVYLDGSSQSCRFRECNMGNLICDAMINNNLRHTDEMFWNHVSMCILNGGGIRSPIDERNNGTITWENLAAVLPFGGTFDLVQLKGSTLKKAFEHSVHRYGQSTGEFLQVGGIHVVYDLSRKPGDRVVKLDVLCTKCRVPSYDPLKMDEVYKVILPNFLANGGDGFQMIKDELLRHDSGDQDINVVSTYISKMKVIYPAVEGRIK
Chain of endogenous, cell-bound CD73 on SK-MEL-28 cells (P21589 27-574): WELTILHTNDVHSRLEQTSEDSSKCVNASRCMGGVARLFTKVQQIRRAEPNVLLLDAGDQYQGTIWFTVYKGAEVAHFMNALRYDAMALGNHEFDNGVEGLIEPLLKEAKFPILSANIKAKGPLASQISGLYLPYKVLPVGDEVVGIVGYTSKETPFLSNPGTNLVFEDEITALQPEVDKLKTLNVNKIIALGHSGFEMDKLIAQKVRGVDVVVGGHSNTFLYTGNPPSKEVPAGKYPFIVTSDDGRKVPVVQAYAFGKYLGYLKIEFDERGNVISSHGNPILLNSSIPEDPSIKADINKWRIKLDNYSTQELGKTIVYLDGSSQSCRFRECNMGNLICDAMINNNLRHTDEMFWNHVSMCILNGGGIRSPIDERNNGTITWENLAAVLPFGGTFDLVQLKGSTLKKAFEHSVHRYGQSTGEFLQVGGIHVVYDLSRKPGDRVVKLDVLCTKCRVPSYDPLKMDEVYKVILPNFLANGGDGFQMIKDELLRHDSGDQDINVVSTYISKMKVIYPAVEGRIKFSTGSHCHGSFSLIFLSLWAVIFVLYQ

Compound	IC50 (recombinant CD73)	IC50 [1]
Nc1nc(Cl)nc2c1ncn2[C@@H]1O[C@H](COC(Cc2ccc(C(=O)O)cc2)(C(=O)O)C(=O)O)[C@@H](O)[C@@H]1F [compound 7, 2-(((2R,3R,4S,5R)-5-(6-amino-2-chloro-9H-purin-9-yl)-4-fluoro-3-hydroxytetrahydro-furan-2-yl)methoxy)-2-(4-carboxybenzyl)-malonic acid]	121 nM	257 nM
Cc1cn([C@H]2C[C@H](O)[C@@H](COC(C(=O)O)C(=O)O)O2)c(=O)[nH]c1=O [compound 14, 2-(((2R,3S,5R)-3-hydroxy-5-(5-methyl-2,4-dioxo-3,4-dihydropyrimidin-1(2H)-yl)tetrahydrofuran-2-yl)methoxy)malonic acid]	> 50000 nM	–
Cn1nc(CC(OC[C@H]2O[C@@H](n3cnc4c(N)nc(Cl)nc43)[C@@H](F)[C@@H]2O)(C(=O)O)C(=O)O)cc1C(=O)O [compound 73, 2-(((2R,3R,4S,5R)-5-(6-amino-2-chloro-9H-purin-9-yl)-4-fluoro-3-hydroxytetrahydrofuran-2-yl)methoxy)-2-((5-carboxy-1-methyl-1H-pyrazol-3-yl)methyl)malonic acid]	8610 nM	1240 nM
Nc1nc(Cl)nc2c1ncn2[C@@H]1O[C@H](COC(Cc2ccc(OCC(F)(F)F)cc2)(C(=O)O)C(=O)O)[C@@H](O)[C@@H]1F [compound 89, 2-(((2R,3R,4S,5R)-5-(6-amino-2-chloro-9H-purin-9-yl)-4-fluoro-3-hydroxytetrahydrofuran-2-yl)methoxy)-2-(4-(2,2,2-trifluoroethoxy)benzyl)malonic acid]	–	70 nM
COC(=O)c1ccc(CC(OC[C@H]2O[C@@H](n3cnc4c(N)nc(Cl)nc43)[C@@H](F)[C@@H]2O)(C(=O)O)C(=O)O)cc1 [compound 91, 2-(((2R,3R,4S,5R)-5-(6-amino-2-chloro-9H-purin-9-yl)-4-fluoro-3-hydroxytetrahydrofuran-2-yl)methoxy)-2-(4-(methoxycarbonyl)benzyl)malonic acid]	322 nM	–
Nc1nc(Cl)nc2c1ncn2[C@@H]1O[C@H](COC(Cc2ccc(OCC(=O)O)cc2)(C(=O)O)C(=O)O)[C@@H](O)[C@@H]1F [compound 92, 2-(((2R,3R,4S,5R)-5-(6-amino-2-chloro-9H-purin-9-yl)-4-fluoro-3-hydroxytetrahydrofuran-2-yl)methoxy)-2-(4-(carboxymethoxy)benzyl)malonic acid]	–	202 nM
